Measurements as given in ChEMBL document CHEMBL1148806 (J Med Chem, 2007).
The source made the active and inactive calls. The calls are words filed in the database; no cut-off is given here.

How the values were obtained:
Liver microsomes [1] = assay: Antioxidant activity in rat hepatic microsomal membrane at 1 mM; format: functional; settings: Microsome
[2] = Effect on nitric oxide release in phosphate buffer at pH 7.4 in presence of cysteine at 100 uM; format: functional
[3] = target: Beta-2 adrenergic receptor (Rattus norvegicus) (UniProt P10608); format: functional, tissue-based; settings: Thoracic aorta, 100 uM
Beta-2 adrenergic receptor (Rattus norvegicus), sequence (P10608 whole entry, looked up): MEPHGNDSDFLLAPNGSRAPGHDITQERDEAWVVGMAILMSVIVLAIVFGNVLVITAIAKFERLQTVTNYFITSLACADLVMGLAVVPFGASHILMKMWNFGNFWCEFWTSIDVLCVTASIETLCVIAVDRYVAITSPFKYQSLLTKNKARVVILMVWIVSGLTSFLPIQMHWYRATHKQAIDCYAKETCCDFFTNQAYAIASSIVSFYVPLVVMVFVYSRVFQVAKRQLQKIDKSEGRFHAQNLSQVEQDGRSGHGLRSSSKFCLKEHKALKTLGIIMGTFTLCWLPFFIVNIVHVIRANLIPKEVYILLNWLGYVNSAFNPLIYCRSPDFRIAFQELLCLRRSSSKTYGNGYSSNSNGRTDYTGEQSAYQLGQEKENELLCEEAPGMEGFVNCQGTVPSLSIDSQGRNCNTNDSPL

[4] = target: T1, Beta-2 adrenergic receptor (Rattus norvegicus, UniProt P10608); assay: Vasodilating activity against phenylephrine-induced contractions in rat thoracic aorta
T1 sequence (P10608 whole entry): as the sequence (P10608 whole entry, looked up) above

[5] = target: T2, Beta-2 adrenergic receptor (Cavia porcellus, UniProt Q8K4Z4)
T2 sequence (Q8K4Z4 whole entry): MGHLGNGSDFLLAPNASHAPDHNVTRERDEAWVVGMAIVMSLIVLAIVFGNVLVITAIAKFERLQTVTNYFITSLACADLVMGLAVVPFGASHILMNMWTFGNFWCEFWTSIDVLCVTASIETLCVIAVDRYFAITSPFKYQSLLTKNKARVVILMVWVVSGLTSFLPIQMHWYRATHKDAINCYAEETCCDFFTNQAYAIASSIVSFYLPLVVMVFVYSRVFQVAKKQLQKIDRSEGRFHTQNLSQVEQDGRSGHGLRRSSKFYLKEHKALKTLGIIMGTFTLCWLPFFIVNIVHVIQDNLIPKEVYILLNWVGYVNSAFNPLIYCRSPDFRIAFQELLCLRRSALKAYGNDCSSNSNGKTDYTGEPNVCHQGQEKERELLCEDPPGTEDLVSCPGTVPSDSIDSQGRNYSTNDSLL

Liver microsomes [6] = assay: Antioxidant activity in rat hepatic microsomal membrane
[7] = target: T1, Beta-2 adrenergic receptor
Description: Vasodilating activity against phenylephrine-induced contraction in rat thoracic aorta in presence of 1H-[1,2,4]oxadiazolo-[4,3-a]quinoxalin-1-one

[8] = target: Beta-2 adrenergic receptor (Cavia porcellus) (UniProt Q8K4Z4); assay: Agonist activity at adrenergic beta-2 receptor in guinea pig tracheal rings assessed as myorelaxing activity on carbachol-induced contraction at 100 uM; format: functional; parameters: scale not given: the % may be the effect or the level left
Beta-2 adrenergic receptor (Cavia porcellus), sequence (Q8K4Z4 whole entry, looked up): as the sequence (Q8K4Z4 whole entry) above

[9] = target: Beta-2 adrenergic receptor (Rattus norvegicus) (UniProt P10608); assay: Vasodilating activity in rat thoracic aorta on phenylephrine-induced contraction at 100 uM; format: functional, tissue-based
[10] = target: T2, Beta-2 adrenergic receptor; remark: listed apart in the source
Description: Agonist activity at adrenergic beta-2 receptor in guinea pig tracheal rings assessed as myorelaxing activity on carbachol-induced contraction in presence of 1H-[1,2,4]oxadiazolo-[4,3-a]quinoxalin-1-one

[11] = target: T2, Beta-2 adrenergic receptor; remark: listed apart in the source

Structure (SMILES) | Activity [2] [%] | EC50 [4] [nM] | EC50 [5] [nM] | IC50 (Liver microsomes [6]) [nM] | also measured
NC(=O)c1c(CO)no[n+]1[O-] | 12 | 6300 | 86000 |  | Activity (Liver microsomes [1]): inactive; Activity [3]: < 50%
CCOc1no[n+]([O-])c1S(=O)(=O)c1ccccc1 | 36 | 12 | 2300 | 110000 | EC50 [7]: 1200 nM
Cc1c(CO)no[n+]1[O-] | < 1 |  |  |  | Activity (Liver microsomes [1]): inactive; Activity [8]: < 50%; Activity [9]: < 50%
CC(Cc1ccc(OCc2no[n+]([O-])c2C(N)=O)cc1)NCC(O)c1cc(O)cc(O)c1 (racemic) [listing 1 of 2 here] |  | 1200 | 1000 |  | EC50 [10]: 1100 nM; EC50 [7]: 16000 nM
CC(Cc1ccc(OCc2no[n+]([O-])c2C(N)=O)cc1)NCC(O)c1cc(O)cc(O)c1 (racemic) [listing 2 of 2 here] | 10.4 |  |  |  | 
CC(Cc1ccc(Oc2no[n+]([O-])c2S(=O)(=O)c2ccccc2)cc1)NCC(O)c1cc(O)cc(O)c1 (stereo in doubt; 15a) [listing 1 of 2 here] |  | 14 | 18 | 13500 | EC50 [10]: 17 nM; EC50 [7]: 860 nM
CC(Cc1ccc(Oc2no[n+]([O-])c2S(=O)(=O)c2ccccc2)cc1)NCC(O)c1cc(O)cc(O)c1 (stereo in doubt; 15a) [listing 2 of 2 here] | 28.4 |  |  |  | 
CC(Cc1ccc(Oc2no[n+]([O-])c2S(=O)(=O)c2ccccc2)cc1)NCC(O)c1cc(O)cc(O)c1 (stereo in doubt; 15b) [listing 1 of 2 here] |  | 14 | 250 |  | EC50 [10]: 440 nM; EC50 [7]: 1300 nM
CC(Cc1ccc(Oc2no[n+]([O-])c2S(=O)(=O)c2ccccc2)cc1)NCC(O)c1cc(O)cc(O)c1 (stereo in doubt; 15b) [listing 2 of 2 here] | 27.5 |  |  |  | 
CC(Cc1ccc(Oc2nonc2S(=O)(=O)c2ccccc2)cc1)NCC(O)c1cc(O)cc(O)c1 (stereo in doubt; 16a) |  |  | 39 | 57000 | 
CC(Cc1ccc(Oc2nonc2S(=O)(=O)c2ccccc2)cc1)NCC(O)c1cc(O)cc(O)c1 (stereo in doubt; 16b) |  |  |  |  | EC50 [11]: 39 nM
CC(Cc1ccc(OCc2no[n+]([O-])c2C(N)=O)cc1)NCC(O)c1cc(O)cc(O)c1 (stereo in doubt; 34a) [listing 1 of 2 here] |  | 1200 | 110 | 156000 | EC50 [10]: 130 nM; EC50 [7]: 14000 nM
CC(Cc1ccc(OCc2no[n+]([O-])c2C(N)=O)cc1)NCC(O)c1cc(O)cc(O)c1 (stereo in doubt; 34a) [listing 2 of 2 here] | 11.5 |  |  |  | 
CC(Cc1ccc(OCc2nonc2C(N)=O)cc1)NCC(O)c1cc(O)cc(O)c1 (stereo in doubt; 35a) |  |  | 29 | 286000 | 
CC(Cc1ccc(OCc2nonc2C(N)=O)cc1)NCC(O)c1cc(O)cc(O)c1 (stereo in doubt; 35b) |  |  | 170 |  | 
Cc1c(COc2ccc(CC(C)NCC(O)c3cc(O)cc(O)c3)cc2)no[n+]1[O-] (stereo in doubt; 36a) [listing 1 of 2 here] |  | 18000 | 220 | 298000 | EC50 [10]: 230 nM
Cc1c(COc2ccc(CC(C)NCC(O)c3cc(O)cc(O)c3)cc2)no[n+]1[O-] (stereo in doubt; 36a) [listing 2 of 2 here] | < 1 |  |  |  | Activity [3]: < 50%
Cc1c(COc2ccc(CC(C)NCC(O)c3cc(O)cc(O)c3)cc2)no[n+]1[O-] (stereo in doubt; 36b) [listing 1 of 2 here] |  | 20000 | 1300 |  | EC50 [10]: 1200 nM
Cc1c(COc2ccc(CC(C)NCC(O)c3cc(O)cc(O)c3)cc2)no[n+]1[O-] (stereo in doubt; 36b) [listing 2 of 2 here] | < 1 |  |  |  | Activity [3]: < 50%
Cc1nonc1COc1ccc(CC(C)NCC(O)c2cc(O)cc(O)c2)cc1 (stereo in doubt; 37a) |  |  | 110 | 123000 | 
Cc1nonc1COc1ccc(CC(C)NCC(O)c2cc(O)cc(O)c2)cc1 (stereo in doubt; 37b) |  |  | 2200 |  | 
